One experiment addresses T1, Aminopeptidase N (Sus scrofa, UniProt P15145).
T1 sequence (P15145 whole entry): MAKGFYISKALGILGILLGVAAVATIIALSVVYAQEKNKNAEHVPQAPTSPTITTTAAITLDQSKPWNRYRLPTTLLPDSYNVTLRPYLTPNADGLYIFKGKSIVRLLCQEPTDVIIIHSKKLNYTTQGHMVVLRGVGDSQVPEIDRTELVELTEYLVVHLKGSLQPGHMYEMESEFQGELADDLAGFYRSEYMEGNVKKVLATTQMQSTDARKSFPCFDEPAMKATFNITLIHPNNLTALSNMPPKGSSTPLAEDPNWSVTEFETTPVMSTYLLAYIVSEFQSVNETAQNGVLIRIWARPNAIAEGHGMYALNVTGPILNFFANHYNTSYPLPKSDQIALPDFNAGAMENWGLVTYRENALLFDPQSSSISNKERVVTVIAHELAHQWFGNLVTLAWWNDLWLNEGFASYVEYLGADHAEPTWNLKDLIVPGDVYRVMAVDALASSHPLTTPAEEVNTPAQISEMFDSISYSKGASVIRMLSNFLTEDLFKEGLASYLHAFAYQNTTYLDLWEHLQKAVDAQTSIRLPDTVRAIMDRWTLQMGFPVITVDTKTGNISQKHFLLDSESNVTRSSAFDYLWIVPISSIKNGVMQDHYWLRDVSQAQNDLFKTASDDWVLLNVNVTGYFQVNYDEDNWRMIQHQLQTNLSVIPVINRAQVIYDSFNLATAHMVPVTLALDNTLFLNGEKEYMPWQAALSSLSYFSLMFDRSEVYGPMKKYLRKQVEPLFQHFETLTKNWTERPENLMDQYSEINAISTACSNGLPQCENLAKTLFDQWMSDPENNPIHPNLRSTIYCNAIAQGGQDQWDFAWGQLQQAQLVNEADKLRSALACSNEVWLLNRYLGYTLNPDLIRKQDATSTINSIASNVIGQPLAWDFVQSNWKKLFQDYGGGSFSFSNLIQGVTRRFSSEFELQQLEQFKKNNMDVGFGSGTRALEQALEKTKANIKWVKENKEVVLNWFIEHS
The experiment is described as follows: (§1) Inhibition of pig kidney microsome aminopeptidase N by UV-visible spectrophotometer.

Experiment [1] addresses 72 kDa type IV collagenase (Homo sapiens, UniProt P08253). The experiment is described as follows: Inhibition of MMP2 by spectrophotometry.
Experiment [2] addresses T2, Aminopeptidase N (Sus scrofa) (UniProt P15145).
T2 sequence (whole entry): T1 sequence (P15145 whole entry)
The description is as §1.

Each structure is given as a SMILES string. The source made the active and inactive calls. The rule behind the calls is not given here.

What is called IC50 is the concentration needed to halve the response being measured. A lower IC50 goes with greater potency.

Take `COc1cc(C(=O)N[C@H](CCC(=O)O)C(=O)Nc2cc(Cl)ccc2Cl)cc(OC)c1OC`: the values for the concentration for half-maximal inhibition (IC50) (at Aminopeptidase N; in experiment [1]) were 80.4 µM and 122 µM, respectively.

On to `COc1cc(C(=O)N[C@H](CCC(=O)O)C(=O)NNC(=O)c2cccnc2)cc(OC)c1OC`, for which the values for the IC50 (against Aminopeptidase N; in experiment [1]) were 72.4 µM and 115 µM, respectively.

`COc1cc(C(=O)N[C@H](CCC(=O)O)C(=O)Nc2ccc(S(N)(=O)=O)cc2)cc(OC)c1OC`: the IC50 against Aminopeptidase N is 103 µM; in experiment [1], 628 µM.

For `COc1cc(C(=O)N[C@H](CCC(=O)O)C(=O)NNC(=O)c2nccs2)cc(OC)c1OC`, the IC50 against Aminopeptidase N came out at 87.7 µM; in experiment [1] it was 169 µM.

With `COc1cc(C(=O)N[C@H](CCC(=O)O)C(=O)Nc2ccc([N+](=O)[O-])cc2)cc(OC)c1OC`, the outcome in experiment [2] and in experiment [1] was inactive.

`COc1cc(C(=O)N[C@H](CCC(=O)O)C(=O)NCc2ccc(Cl)cc2F)cc(OC)c1OC`: the IC50 stood at 45.6 µM at Aminopeptidase N and 52.8 µM in experiment [1].

For the compound `COc1cc(C(=O)N[C@H](CCC(=O)O)C(=O)NCc2cccc(I)c2)cc(OC)c1OC`, the IC50 stood at 65.9 µM against Aminopeptidase N and 76.8 µM in experiment [1].

With `COc1cc(C(=O)N[C@H](CCC(=O)O)C(=O)Nc2ccc(F)cc2F)cc(OC)c1OC`, the IC50 is 89.6 µM against Aminopeptidase N and 109 µM in experiment [1].

As for `COc1cc(C(=O)N[C@H](CCC(=O)O)C(=O)NCc2ccc(Br)cc2F)cc(OC)c1OC`, the IC50 is 51.2 µM on Aminopeptidase N and 76.1 µM in experiment [1].

In the case of `COc1cc(C(=O)N[C@H](CCC(=O)O)C(=O)Nc2ccc(C(=O)O)cc2)cc(OC)c1OC`, the results for the IC50 (at Aminopeptidase N; in experiment [1]) were 65.8 µM and 71.2 µM, respectively.

`COc1cc(C(=O)N[C@H](CCC(=O)O)C(=O)Nc2ccc(C(=O)O)c(O)c2)cc(OC)c1OC`: the IC50 against Aminopeptidase N came to 57.8 µM; in experiment [1], 86.3 µM.

Consider `COc1cc(C(=O)N[C@H](CCC(=O)O)C(=O)Nc2ccc(Br)cc2)cc(OC)c1OC`, for which the IC50 on Aminopeptidase N was determined as 41.9 µM; in experiment [1], 54.4 µM.

Turning to `COc1cc(C(=O)N[C@H](CCC(=O)O)C(=O)Nc2ccc(N)cc2)cc(OC)c1OC`, the results for the IC50 (on Aminopeptidase N; in experiment [1]) were 23.4 µM and 33.6 µM, respectively.

For `COc1cc(C(=O)N[C@H](CCC(=O)O)C(=O)Nc2ccc(S(=O)(=O)Nc3nccs3)cc2)cc(OC)c1OC`, the concentration for half-maximal inhibition (IC50) against Aminopeptidase N is 40.1 µM; in experiment [1], 55.3 µM.

In experiment [1], `CC(C)C[C@H](NC(=O)[C@@H](O)[C@H](N)Cc1ccccc1)C(=O)O` [UBENIMEX] registered a half-maximal inhibitory concentration (IC50) of 40.5 µM.

Regarding `COc1cc(C(=O)N[C@H](CCC(=O)O)C(=O)NCc2cccc(Br)c2)cc(OC)c1OC`, the IC50 at Aminopeptidase N worked out at 177 µM; in experiment [1], 287 µM.

For the compound `COc1cc(C(=O)N[C@H](CCC(=O)O)C(=O)Nc2ccc(F)cc2)cc(OC)c1OC`, the concentration for half-maximal inhibition (IC50) turned out to be 24.3 µM at Aminopeptidase N and 26.1 µM in experiment [1].

For `COc1cc(C(=O)N[C@H](CCC(=O)O)C(=O)Nc2ccc(Cl)cc2)cc(OC)c1OC`, the results for the concentration for half-maximal inhibition (IC50) (at Aminopeptidase N; in experiment [1]) were 40 µM and 52.3 µM, respectively.

For the compound `COc1cc(C(=O)N[C@H](CCC(=O)O)C(=O)NCCCl)cc(OC)c1OC`, the IC50 was 805 µM against Aminopeptidase N and 501 µM in experiment [1].

With `COc1cc(C(=O)N[C@H](CCC(=O)O)C(=O)Nc2ccc(F)c(Cl)c2)cc(OC)c1OC`, the IC50 worked out at 78.5 µM against Aminopeptidase N and 107 µM in experiment [1].

With `COc1cc(C(=O)N[C@H](CCC(=O)O)C(=O)Nc2nccs2)cc(OC)c1OC`, the IC50 against Aminopeptidase N worked out at 108 µM; in experiment [1], 369 µM.

On to `COc1cc(C(=O)NC2CCC(=O)N(c3ccccc3N)C2=O)cc(OC)c1OC` (stereo not drawn), for which the IC50 is 104 µM at Aminopeptidase N and 660 µM in experiment [1].

The values are drawn from ChEMBL document CHEMBL1153451, “Novel aminopeptidase N inhibitors derived from antineoplaston AS2-5 (Part I)” (Bioorg Med Chem, 2009).
